The values below come from US20230382949A1 (HEPTARES THERAPEUTICS LIMITED, priority 2020, published 2023).

SMILES strings stand for the structures. Like-named read-outs stand apart in the source and are kept apart here. Starred links: 1 amine or outer side, 2 acyl side, 3 side chain; linkers in the order of their positions; H or OH if unused. Non-standard residues stand in square brackets, D forms with d. Residues, ends and D or L forms follow the SMILES beside them. *: point of attachment. Ala(piperidin-4-yl) = O=C([C@H](CC1CCN([*:3])CC1)N[*:1])[*:2]; Malonyl(2,2-Me2,histaminyl) = CC(C)(C(=O)NCCc1cnc[nH]1)C(=O)*; dBip = N[C@H](Cc1ccc(-c2ccccc2)cc1)C(=O)O; Oic = O=C(O)[C@@H]1C[C@@H]2CCCC[C@@H]2N1; Phe(4-Br) = N[C@@H](Cc1ccc(Br)cc1)C(=O)O; dPhe(4-Br) = N[C@H](Cc1ccc(Br)cc1)C(=O)O; X4 = CC(C)(C(=O)NCCCc1cnc[nH]1)C(=O)*; NMeH = CN[C@@H](Cc1c[nH]cn1)C(=O)O; X1 = CC(C)(C(=O)NCCc1ccccc1)C(=O)*; X3 = CC(C)(C(=O)NCCc1ccccn1)C(=O)*; hArg = N=C(N)NCCCC[C@H](N)C(=O)O; dCha = N[C@H](CC1CCCCC1)C(=O)O; Aib = CC(C)(N)C(=O)O; Bn = c1ccc(C*)cc1

The target of assay [1] is T1, human Apelin receptor (Homo sapiens, UniProt P35414).
T1 construct: host or cells: CHO-K1 cells
The assay can be described thus: β-arrestin accumulation assay, functional agonism of human Apelin receptors. It is filed as cell-based. In short, it runs like this:
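After 16 h at 37° C., cells were exposed to increasing agonist concentrations in serum-free medium for 90 min at 37° C. Detection reagent added for 60 min in the dark; receptor activation read by fluorescence and EC50 derived from concentration-response curves.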
T1 sequence (P32121 whole entry partner, one chain of several): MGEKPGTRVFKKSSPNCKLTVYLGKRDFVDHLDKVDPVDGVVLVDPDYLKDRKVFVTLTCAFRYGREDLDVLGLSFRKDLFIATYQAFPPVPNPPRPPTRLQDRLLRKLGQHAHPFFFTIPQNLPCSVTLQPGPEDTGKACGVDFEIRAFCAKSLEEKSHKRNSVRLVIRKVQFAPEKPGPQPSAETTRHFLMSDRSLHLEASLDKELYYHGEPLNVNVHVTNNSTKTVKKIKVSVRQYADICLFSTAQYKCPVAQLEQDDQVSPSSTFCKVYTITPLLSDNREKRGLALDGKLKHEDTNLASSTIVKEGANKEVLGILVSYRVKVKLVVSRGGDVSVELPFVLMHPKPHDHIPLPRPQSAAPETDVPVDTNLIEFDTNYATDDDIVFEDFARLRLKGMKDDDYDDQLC

Assay [2] concerns the target T2, human Apelin receptor (Homo sapiens, UniProt P35414).
T2 sequence (P35414 1-380): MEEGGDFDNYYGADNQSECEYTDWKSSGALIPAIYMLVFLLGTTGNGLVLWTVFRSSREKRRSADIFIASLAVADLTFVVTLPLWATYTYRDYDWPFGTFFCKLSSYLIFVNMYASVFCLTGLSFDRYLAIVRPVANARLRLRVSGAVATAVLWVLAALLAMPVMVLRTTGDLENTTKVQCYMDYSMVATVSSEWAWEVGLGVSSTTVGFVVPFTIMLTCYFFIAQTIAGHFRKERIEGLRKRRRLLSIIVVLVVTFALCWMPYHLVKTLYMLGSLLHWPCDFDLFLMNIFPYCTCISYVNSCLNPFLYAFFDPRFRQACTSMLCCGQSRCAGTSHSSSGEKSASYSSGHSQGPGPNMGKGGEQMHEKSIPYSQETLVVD
Kind of assay: cAMP accumulation assay (HTRF), functional agonism of human Apelin receptors. It counts as cell-based. To be noted: for Emax: CHO. The source says: cAMP functional assay. cAMP production was quantified using the Homogeneous Time-Resolved Fluorescence (HTRF) cAMP dynamic-2 assay (Cisbio, France).
Background: Changes in cAMP serve as a functional read-out for many G protein-coupled receptors.

[3] abbreviates: Human Apelin agonist cAMP assay, CHO cells stably expressing the human Apelin receptor, 3 uM forskolin.
Setting [4] is: pEC50, Human Apelin agonist cAMP assay, CHO cells stably expressing the human Apelin receptor, 3 uM forskolin.

Regarding `CC(C)C[C@H](NC(=O)[C@@H](CCCNC(=N)N)NC(=O)[C@@H]1CCCN1C(=O)[C@H](CCCCNC(=N)N)NC(=O)[C@H](CCC(N)=O)NC(=O)[C@@H](CCCNC(=N)N)NC(=O)C(C)(C)C(=O)NCCCc1cnc[nH]1)C(=O)NC(C)(C)C(=O)N[C@@H](Cc1c[nH]cn1)C(=O)N[C@@H](CC1CCNCC1)C(=O)NCC(=O)N1[C@H](C(=O)N[C@@H](Cc2ccc(Br)cc2)C(=O)N2CCC[C@H]2C(=O)N[C@H](Cc2ccc(-c3ccccc3)cc2)C(=O)O)C[C@@H]2CCCC[C@@H]21` [Example 36] (X4-[dR]Q[hArg]P[dR]L[Aib]H[Ala(piperidin-4-yl)]G[Oic][Phe(4-Br)]P[dBip]-OH), the EC50 at human Apelin receptor [1] is more than 100 µM; at human Apelin receptor [2] (setting [4]), 0.00501 µM. On human Apelin receptor [2] (setting [3]), this molecule showed an Emax of 55.7%.
For the molecule `CC(C)C[C@H](NC(=O)[C@@H](CCCNC(=N)N)NC(=O)[C@@H]1CCCN1C(=O)[C@H](CCCCNC(=N)N)NC(=O)[C@H](CCC(N)=O)NC(=O)C(C)(C)C(=O)NCCc1cnc[nH]1)C(=O)N[C@H](C)C(=O)N[C@@H](Cc1c[nH]cn1)C(=O)N[C@@H](CC1CCNCC1)C(=O)NCC(=O)N1[C@H](C(=O)N[C@@H](Cc2ccc(Br)cc2)C(=O)N2CCC[C@H]2C(=O)N[C@H](Cc2ccc(-c3ccccc3)cc2)C(=O)O)C[C@@H]2CCCC[C@@H]21` [Example 38] ({Malonyl(2,2-Me2,histaminyl)}-Q[hArg]P[dR]L[dA]H[Ala(piperidin-4-yl)]G[Oic][Phe(4-Br)]P[dBip]-OH), the EC50 at human Apelin receptor [1] was more than 10 µM; at human Apelin receptor [2] (setting [4]), 0.0316 µM. At human Apelin receptor [2] (setting [3]), the maximal effect (Emax) is 27.9%.
With `CC(C)C[C@H](NC(=O)[C@@H](CCCNC(=N)N)NC(=O)[C@@H]1CCCN1C(=O)[C@H](CCCCNC(=N)N)NC(=O)[C@H](CCC(N)=O)NC(=O)C(C)(C)C(=O)NCCc1cnc[nH]1)C(=O)NC(C)(C)C(=O)N[C@@H](Cc1c[nH]cn1)C(=O)N[C@@H](CC1CCNCC1)C(=O)NCC(=O)N1[C@H](C(=O)N[C@@H](Cc2ccc(Br)cc2)C(=O)N2CCC[C@H]2C(=O)N[C@H](Cc2ccc(-c3ccccc3)cc2)C(=O)O)C[C@@H]2CCCC[C@@H]21` [Example 39] ({Malonyl(2,2-Me2,histaminyl)}-Q[hArg]P[dR]L[Aib]H[Ala(piperidin-4-yl)]G[Oic][Phe(4-Br)]P[dBip]-OH), the EC50 at human Apelin receptor [1] was more than 10 µM; at human Apelin receptor [2] (setting [4]) it was 0.0316 µM. The Emax on human Apelin receptor [2] (setting [3]) was found to be 62.1%.
The like results for `CC(C)C[C@H](NC(=O)[C@H](CCCNC(=N)N)NC(=O)[C@@H]1CCCN1C(=O)[C@@H](CCCNC(=N)N)NC(=O)[C@H](CCC(N)=O)NC(=O)C(C)(C)C(=O)NCCc1cnc[nH]1)C(=O)NC(C)(C)C(=O)N[C@@H](Cc1c[nH]cn1)C(=O)N[C@@H](CC1CCNCC1)C(=O)NCC(=O)N1[C@H](C(=O)N[C@@H](Cc2ccc(Br)cc2)C(=O)N2CCC[C@H]2C(=O)N[C@H](Cc2ccc(-c3ccccc3)cc2)C(=O)O)C[C@@H]2CCCC[C@@H]21` [Example 40] ({Malonyl(2,2-Me2,histaminyl)}-Q[dR]PRL[Aib]H[Ala(piperidin-4-yl)]G[Oic][Phe(4-Br)]P[dBip]-OH) were, in that order, more than 10 µM, 0.0251 µM and 84.8%.
Take `CC(C)C[C@H](NC(=O)[C@H](CCCNC(=N)N)NC(=O)[C@@H]1CCCN1C(=O)[C@@H](CCCNC(=N)N)NC(=O)[C@H](CCC(N)=O)NC(=O)C(C)(C)C(=O)NCCc1cnc[nH]1)C(=O)NC(C)(C)C(=O)N[C@@H](Cc1c[nH]cn1)C(=O)N[C@@H](CC1CCNCC1)C(=O)NCC(=O)N1[C@H](C(=O)N[C@@H](Cc2ccc(Br)cc2)C(=O)N2CCC[C@H]2C(=O)N[C@H](Cc2ccc(Br)cc2)C(=O)O)C[C@@H]2CCCC[C@@H]21` [Example 41] ({Malonyl(2,2-Me2,histaminyl)}-Q[dR]PRL[Aib]H[Ala(piperidin-4-yl)]G[Oic][Phe(4-Br)]P[dPhe(4-Br)]-OH): the results for the EC50 at human Apelin receptor [1] and at human Apelin receptor [2] (read-out: pEC50 (converted)) were more than 10 µM and 0.0501 µM, respectively. In addition, on human Apelin receptor [2] (read-out: Emax), the maximal effect (Emax) came to 46.1%.
With `CC(C)C[C@H](NC(=O)[C@H](CCCNC(=N)N)NC(=O)[C@@H]1CCCN1C(=O)[C@@H](CCCNC(=N)N)NC(=O)[C@H](CCC(N)=O)NC(=O)C(C)(C)C(=O)NCCc1cnc[nH]1)C(=O)NC(C)(C)C(=O)N[C@@H](Cc1c[nH]cn1)C(=O)N[C@@H](CC1CCNCC1)C(=O)NCC(=O)N1[C@H](C(=O)N[C@@H](Cc2ccc(Br)cc2)C(=O)N2CCC[C@H]2C(=O)N[C@H](Cc2ccc(OCc3ccccc3)cc2)C(=O)O)C[C@@H]2CCCC[C@@H]21` [Example 42] ({Malonyl(2,2-Me2,histaminyl)}-Q[dR]PRL[Aib]H[Ala(piperidin-4-yl)]G[Oic][Phe(4-Br)]P[dY](Bn)-OH), the EC50 was 0.0794 µM on human Apelin receptor [1] and 0.00794 µM on human Apelin receptor [2] (setting [4]). This molecule yielded an Emax at human Apelin receptor [2] (setting [3]) of 107%.
For the molecule `CC(C)C[C@H](NC(=O)[C@H](CCCNC(=N)N)NC(=O)[C@@H]1CCCN1C(=O)[C@@H](CCCNC(=N)N)NC(=O)[C@H](CCC(N)=O)NC(=O)C(C)(C)C(=O)NCCc1cnc[nH]1)C(=O)NC(C)(C)C(=O)N[C@@H](Cc1c[nH]cn1)C(=O)N[C@@H](CC1CCNCC1)C(=O)NCC(=O)N1[C@H](C(=O)N[C@@H](Cc2ccc(Br)cc2)C(=O)N2CCC[C@H]2C(=O)N[C@H](CC2CCCCC2)C(=O)O)C[C@@H]2CCCC[C@@H]21` [Example 43] ({Malonyl(2,2-Me2,histaminyl)}-Q[dR]PRL[Aib]H[Ala(piperidin-4-yl)]G[Oic][Phe(4-Br)]P[dCha]-OH), the EC50 was more than 10 µM on human Apelin receptor [1] and 0.1 µM at human Apelin receptor [2] (read-out: pEC50 (converted)). For the same molecule, the Emax at human Apelin receptor [2] (read-out: Emax) was found to be 95.7%.
`CC(C)C[C@H](NC(=O)[C@H](CCCNC(=N)N)NC(=O)[C@@H]1CCCN1C(=O)[C@@H](CCCNC(=N)N)NC(=O)[C@H](CCC(N)=O)NC(=O)C(C)(C)C(=O)NCCc1cnc[nH]1)C(=O)NC(C)(C)C(=O)N(C)[C@@H](Cc1c[nH]cn1)C(=O)N[C@@H](CC1CCNCC1)C(=O)NCC(=O)N1[C@H](C(=O)N[C@@H](Cc2ccc(Br)cc2)C(=O)N2CCC[C@H]2C(=O)N[C@H](Cc2ccc(-c3ccccc3)cc2)C(=O)O)C[C@@H]2CCCC[C@@H]21` [Example 44] ({Malonyl(2,2-Me2,histaminyl)}-Q[dR]PRL[Aib][NMeH][Ala(piperidin-4-yl)]G[Oic][Phe(4-Br)]P[dBip]-OH): the EC50 is more than 10 µM at human Apelin receptor [1] and 0.0501 µM at human Apelin receptor [2] (setting [4]). The molecule also had an Emax on human Apelin receptor [2] (setting [3]) of 34.7%.
For `CC(C)C[C@H](NC(=O)[C@@H](CCCNC(=N)N)NC(=O)[C@@H]1CCCN1C(=O)[C@H](CCCCNC(=N)N)NC(=O)[C@H](CCC(N)=O)NC(=O)C(C)(C)C(=O)NCCc1ccccc1)C(=O)NC(C)(C)C(=O)N[C@@H](Cc1c[nH]cn1)C(=O)N[C@@H](CC1CCNCC1)C(=O)NCC(=O)N1[C@H](C(=O)N[C@@H](Cc2ccc(Br)cc2)C(=O)N2CCC[C@H]2C(=O)N[C@H](Cc2ccc(-c3ccccc3)cc2)C(=O)O)C[C@@H]2CCCC[C@@H]21` [Example 45] (X1-Q[hArg]P[dR]L[Aib]H[Ala(piperidin-4-yl)]G[Oic][Phe(4-Br)]P[dBip]-OH), in that order: more than 10 µM, 0.0398 µM and 59%.
For `CC(C)C[C@H](NC(=O)[C@@H](CCCNC(=N)N)NC(=O)[C@@H]1CCCN1C(=O)[C@H](CCCCNC(=N)N)NC(=O)[C@H](CCC(N)=O)NC(=O)C(C)(C)C(=O)NCCc1ccccn1)C(=O)NC(C)(C)C(=O)N[C@@H](Cc1c[nH]cn1)C(=O)N[C@@H](CC1CCNCC1)C(=O)NCC(=O)N1[C@H](C(=O)N[C@@H](Cc2ccc(Br)cc2)C(=O)N2CCC[C@H]2C(=O)N[C@H](Cc2ccc(-c3ccccc3)cc2)C(=O)O)C[C@@H]2CCCC[C@@H]21` [Example 46] (X3-Q[hArg]P[dR]L[Aib]H[Ala(piperidin-4-yl)]G[Oic][Phe(4-Br)]P[dBip]-OH), in that order: more than 10 µM, 0.0398 µM and 55%.
Regarding `CC(C)C[C@H](NC(=O)[C@@H](CCCNC(=N)N)NC(=O)[C@@H]1CCCN1C(=O)[C@H](CCCCNC(=N)N)NC(=O)[C@H](CCC(N)=O)NC(=O)C(C)(C)C(=O)NCCc1cnc[nH]1)C(=O)N[C@@H](CO)C(=O)NC(C)(C)C(=O)N[C@@H](CC1CCNCC1)C(=O)NCC(=O)N1[C@H](C(=O)N[C@@H](Cc2ccc(Br)cc2)C(=O)N2CCC[C@H]2C(=O)N[C@H](Cc2ccc(-c3ccccc3)cc2)C(=O)O)C[C@@H]2CCCC[C@@H]21` [Example 47] ({Malonyl(2,2-Me2,histaminyl)}-Q[hArg]P[dR]LS[Aib][Ala(piperidin-4-yl)]G[Oic][Phe(4-Br)]P[dBip]-OH), the EC50 was more than 1 µM on human Apelin receptor [1] and 0.0126 µM on human Apelin receptor [2] (setting [4]). This molecule also yielded a maximal effect (Emax) on human Apelin receptor [2] (setting [3]) of 94.2%.
For `CC(C)C[C@@H](NC(=O)[C@@H](CCCNC(=N)N)NC(=O)[C@@H]1CCCN1C(=O)[C@H](CCCCNC(=N)N)NC(=O)[C@@H](CCC(N)=O)NC(=O)C(C)(C)C(=O)NCCc1cnc[nH]1)C(=O)NC(C)(C)C(=O)N[C@@H](Cc1c[nH]cn1)C(=O)N[C@@H](CC1CCNCC1)C(=O)N[C@H](C)C(=O)N1[C@H](C(=O)N[C@@H](Cc2ccc(Br)cc2)C(=O)N2CCC[C@H]2C(=O)N[C@H](Cc2ccc(-c3ccccc3)cc2)C(=O)O)C[C@@H]2CCCC[C@@H]21` [Example 48] ({Malonyl(2,2-Me2,histaminyl)}-[dQ][hArg]P[dR][dL][Aib]H[Ala(piperidin-4-yl)][dA][Oic][Phe(4-Br)]P[dBip]-OH), in that order: more than 10 µM, 0.1 µM and 33.5%.

In general, Emax refers to the maximal effect, on the per cent scale that the assay sets.
